Laboratory results as given in US20090131370A1, “Novel Nucleoside Derivatives” (METABASIS THERAPEUTICS , INC., priority 2004, published 2009).
Where two headings read alike, the source gives them in different places.

Assays:
[1] = Susceptibility to non-productive metabolism (deamination) in vitro in rat whole blood or plasma; format: in vitro ADME
Protocol: The susceptibility of 2′-β-C-methyladenosine, and its 2′,3′-carbonate prodrugs to non-productive metabolism was evaluated in vitro and in vivo. […] Aliquots of the blood and plasma samples were removed periodically and extracted with perchloric acid and methanol, respectively, and then centrifuged. The acidic supernatants were neutralized with potassium carbonate and recentrifuged. […] Analysis (50 μL) was performed on an Agilent Zorbax SB-Aq column (4.6×150 mm) eluted with a gradient consisting of a mixture of Buffer A (20 mM potassium phosphate pH 6.2) and Buffer B (acetonitrile) (0-10 min, 0-10%; 10-20 min, 10-80%, 20-21 min, 80-0%; 21-30 min, 0-0%) and UV absorbance monitoring at 265 nm. The flow rate was 1.5 mL/min and the column temperature was set at 40° C. Concentrations of metabolite were determined from calibration curves prepared by spiking known amounts of standards to plasma and processing as before.

HCV = test: Antiviral activity in HCV-infected human liver slice assay; format: cell-based, hepatitis C virus; settings: HCV RNA in culture media
Protocol: The effect of various compounds on HCV replication in human liver tissue was evaluated as described below.
Liver from a brain-dead HCV antibody-positive human patient was perfused with ice-cold Viaspan (Dupont Pharmaceutical) preservation solution and received on ice in Viaspan.
Precision-cut liver slices of ˜200-250 μm thickness and […] diameter were prepared and cultured in Waymouth's cell culture medium (Gibco, Inc.) that was supplemented with 10% fetal bovine serum and 10 mL/L Fungi-Bact at 37° C., and gassed with carbogen (95% O2, 5% CO2) at 0.75 liters/min. Tissue slices were maintained in culture for 72 h. Cell culture medium containing test compound in solution was changed on a daily basis.
At appropriate times of liver slice incubation, liver slices and medium were collected for analysis of HCV RNA (tissue and medium) and nucleotide levels (NTP). All collected media and tissue slices were maintained in liquid N2 until analysis.
Medium and tissue samples were analyzed for HCV RNA levels according to published procedures (Bonacini et. al., 1999) which utilize an automated, multicycle, polymerase chain reaction (PCR)-based technique. This assay has a lower limit of detection for HCV RNA of 100 viral copies/ml. Frozen liver slices were disrupted by using a combination of ultrasound probe sonication, Branson Sonifier 450 (Branson Ultrasonics, Danbury, Conn.) and homogenization using a Dounce conical pestle in 200 μls of 10% (v/v) perchloric acid (PCA). After a 5 min centrifugation at 2,500×g, the supernatants were neutralized using 3 M KOH/3 M KHCO3 and mixed thoroughly. The neutralized samples were centrifuged at 2,500 g for 5 min and NTP levels were determined by ion exchange phase HPLC (Hewlett Packard 1050) using a Whatman Partisil 5 SAX (5 μm, 4.6×250 mm) column. Samples (50 μL) were injected onto the column in 70% 10 mM ammonium phosphate buffer and 30% 1 M ammonium phosphate buffer, both at pH 3.5 and containing 6% ethanol. Nucleoside triphosphates were eluted from the column using a linear gradient to 80% 1 M ammonium phosphate pH 3.5/6% ethanol buffer, at a flow rate of 1.25 mL/min and detected by UV absorbance (254 nm).

[2] = Oral bioavailability in the rat based on liver nucleotide concentrations
Protocol: At pre-specified times of 20 min, 1, 3, 5, 8, 16, and 24 hrs post dose, liver samples (˜1 g) were collected by freeze-clamping and homogenized in 3 volumes of ice-cold 60% acetonitrile. Following centrifugation to clarify the homogenate, aliquots of the supernatants (100 μL) were evaporated to dryness on a Savant Speed-Vac Plus (1 hr, room temperature). The resulting dried residue was reconstituted with 100 μL of mobile phase and then analyzed for nucleotides by an LC-MS/MS method as described below.
The reconstituted extracts in mobile phase A (20 mM N,N-dimethylhexylamine and 10 mM propionic acid in 20% methanol) were analyzed by LC-MS/MS (Applied Biosystems, API 4000) equipped with an Agilent 1100 binary pump and a LEAP injector. […] Where possible, the quantitative analysis of liver NMP, NDP, and NTP were calculated based on a calibration curve generated from their respective standards (0.01-30 μM).
The area under the curve (AUC) to the last measurable time point were calculated by trapezoidal summation of the liver concentration-time profile of total nucleotides and NTP. The OBAV was determined by dividing the dose-normalized AUC following oral administration by the AUC following IV dosing.

[3] = rat, in vivo
Protocol: Analog and Its 2′,3′-Carbonate Prodrugs The liver selectivity of an antiviral nucleoside, 2′-B-C-methyladenosine, and its 2′,3′-carbonate prodrugs was evaluated in the rat by comparing liver nucleotide concentrations to levels of a major metabolite in the plasma or to concentrations of extrahepatic nucleotides. An elevated liver selectivity index is an indication of improved liver targeting of the antiviral agent and reduced exposure to other organs that may be potential targets of toxicity.
At pre-specified times of 20 min, 1, 3, 5, 8, 16, and 24 hrs post dose, liver, heart, and thigh muscle samples (˜1 g) were harvested by freeze-clamping and homogenized in 3 volumes of ice-cold acetonitrile. Following centrifugation to clarify the homogenate, aliquots of the tissue extracts were evaporated to dryness on a Savant Speed-Vac Plus (1 hr, room temperature). The resulting dried residue was reconstituted with 100 μL of mobile phase and then analyzed for nucleotides by an LC-MS/MS method as described in Example I. In addition to solid tissue, blood was collected in heparin tubes at the pre-specified times and centrifuged to obtain plasma. The plasma samples (100 μL) were extracted with 1.5 volumes of methanol and centrifuged for 20 min at top speed on a microfuge. Plasma concentrations of a major metabolite of 2′-B-C-methyladenosine, i.e., 2′-B-C-methylinosine, were determined by LC-UV as described in Example E.
The area under the curve (AUC) to the last measurable time point was calculated by trapezoidal summation of the liver, heart, and muscle concentration-time profile of total nucleotides and NTP and of the plasma concentration-time profile of the major metabolite 2′-B-C-methylinosine. The liver selectivity index was determined by two methods: (1) dividing liver NTP AUC by heart nucleotide AUC and (2) dividing liver NTP AUC by plasma 2′-3-C-methylinosine AUC.

[4] = Kinetics of conversion of HepDirect-carbonate prodrugs to nucleoside monophosphates by human liver microsomes; format: in vitro ADME; settings: activation to NMP, Lineweaver-Burke plot
Protocol: The kinetics of activation of prodrug analogues to NMP were evaluated in the microsomal fraction of human liver.
Human liver microsomes were purchased from In Vitro Technologies. The study was performed at 2 mg/mL human liver microsomes, 100 mM KH2PO4, 10 mM glutathione, 0-250 μM compound, and 2 mM NADPH for 0-7.5 min. in an Eppendorf Thermomixer 5436 (37° C., 850 rpm). The reactions were initiated by addition of NADPH following a 2-min. preincubation. Reactions were quenched with 60% methanol at 0, 2.5, 5, and 7.5 min. The resulting extracts were clarified by centrifugation at 14,000 rpm in an Eppendorf microfuge (20 min.). The supernatants (200 μL) were evaporated under vacuum and, heat to dryness. The dried residue was reconstituted with 200 μL of water and the mixture was centrifuged for 10 min at 14,000 rpm. […] NMP was detected by using MS/MS mode (M^−/78.8) and quantified based on comparison to a standard of lamivudine monophosphate. Kinetic parameters were determined from a Lineweaver-Burke plot of the data with use of SigmaPlot 9.0 software.

[5] = Susceptibility to non-productive metabolism in vivo: 2′-β-C-methylinosine AUC in rat plasma and tissues; set-up: species or system male Sprague-Dawley rats; settings: male, Sprague-Dawley
Protocol: The susceptibility of 2′-β-C-methyladenosine, and its 2′,3′-carbonate prodrugs to non-productive metabolism was evaluated in vitro and in vivo. […] Also at the pre-specified times, blood (heparinized) was collected from the vena cava and centrifuged briefly to obtain plasma. […] The supernatant was then analysis for deaminated products and other metabolites by LC-UV as described above.

[6] = Conversion of Compound 31.5 to 2′-β-methyladenosine in rat liver S9; format: in vitro ADME; settings: Rat liver S9, 37° C., pH 7.4
Protocol: (§1) The rate of Compound 31.5 conversion to nucleoside was evaluated in liver S9 obtained from rat, dog, monkey and human liver. […] The homogenate was centrifuged in a Sorvall RC-5B Refrigerated Superspeed Centrifuge (30 minutes at 10,000 g) and the resulting supernatant used in the assays. The other S9 preparations were purchased from 1n Vitro Technologies. […] Aliquots of the reaction mixture were quenched with 2 volumes of ice-cold acetonitrile/0.2% formic acid (pH 3.0) at appropriate time intervals, briefly vortexed, and then immediately placed on dry ice. After all time points were taken, the samples were centrifuged in an Eppendorf microfuge (14,000 rpm, 10 minutes). The supernatant fractions were analyzed for disappearance of prodrug (and appearance of 2′-β-methyladenosine) by reverse phase HPLC on an Agilent Zorbax SB-Aq column (511m, 4.6×150 mm). The loading mobile phase buffer (Buffer A) consisted of a 9:1 ratio (v/v) of 20 mM potassium phosphate, pH 6.2 and acetonitrile. […] The elution of reaction components was monitored at […]. Quantitation was by comparison to authentic standards prepared in liver S9 and processed in an identical fashion to the unknown samples. The rate of prodrug conversion was calculated from the linear portion of the reaction curves and expressed as nmoles converted per mg of S9 protein per minute of reaction time.

[7] = Conversion of Compound 31.5 to 2′-β-methyladenosine in dog (Beagle) liver S9; format: in vitro ADME; settings: Beagle liver S9, 37° C., pH 7.4
Protocol: as §1

[8] = Conversion of Compound 31.5 to 2′-β-methyladenosine in monkey liver S9; format: in vitro ADME; settings: Monkey liver S9, 37° C., pH 7.4
Protocol: as §1

[9] = Conversion of Compound 31.5 to 2′-β-methyladenosine in human liver S9; format: in vitro ADME; settings: Human liver S9, 37° C., pH 7.4
Protocol: as §1

Compound | % decrease in viral RNA relative to untreated liver slices (HCV; 0.25 μM) [%] | % decrease in viral RNA relative to untreated liver slices (HCV; 2.5 μM) [%] | % decrease in viral RNA relative to untreated liver slices (HCV; 25 μM) [%] | % decrease in viral RNA relative to untreated liver slices (HCV; 100 μM) [%] | Km [4] [µM] | Vmax [4] [nmol/min/mg] | deaminated product (2′-β-C-methylinosine) after incubation in rat whole blood in vitro ([1]; rat) | deaminated product 2′-B-C-methylinosine in plasma, liver, heart, and muscle tissue [5] | Heart Nucleotides AUC ([3]; male, Sprague-Dawley) | Liver NTP AUC ([3]; male, Sprague-Dawley) | Plasma 2′-β-C-Methylinosine AUC ([3]; male, Sprague-Dawley) | ORAL BIOAVAILABILITY ([2]; male, Sprague-Dawley, in vivo) [%] | further results
2′-β-C-methyladenosine [reference compound] | 0 | 83 | 94 | 92 |  |  |  |  |  |  |  |  | deaminated product (2′-β-C-methylinosine) after incubation in rat whole blood in vitro ([1]; rat whole blood, 37° C.): 2′-β-C-methylinosine was observed; ORAL BIOAVAILABILITY ([2]; dose-normalized liver nucleotide AUC oral / IV): < 5%; ORAL BIOAVAILABILITY ([2]; dose-normalized liver nucleotide AUC oral / IV, listed as 2′-β-C-Methyladenosine): 2%; Liver NTP AUC [3]: 15; Plasma 2′-β-C-Methylinosine AUC [3]: 11; Plasma concentrations of the main metabolite, 2′-B-C-methylinosine [3]: detectable; concentrations of nucleotides of 2′-methyladenosine in heart and muscle tissue [3]: measurable in heart and muscle tissue
C[C@@]12OC(=O)O[C@@H]1[C@@H](COP1(=O)OCC[C@@H](c3ccncc3)O1)O[C@H]2n1cnc2c(N)ncnc21 (stereo partly shown) [Compound 30.1] |  |  |  |  | 64 | 0.36 | no deaminated products were detected | no or only trace levels of the deaminated product were measurable | 2.6 | 841 | < 7.1 |  | 
CC1(C)C[C@@H](c2cccc(F)c2F)OP(=O)(OC[C@H]2O[C@@H](n3cnc4c(N)ncnc43)[C@]3(C)OC(=O)O[C@H]23)O1 (stereo partly drawn) [Compound 30.10, cis-5′-O-[6-(2,3-Difluorophenyl)-4,4-dimethyl-2-oxo-1,3,2-dioxaphosphorinan-2-y]-2′,3′-carbonyl-2′-C-methyl-adenosine] |  |  |  |  | 44.5 | 0.12 | no deaminated products were detected | no or only trace levels of the deaminated product were measurable | < 2.8 |  | < 7.1 | 21 | 
C[C@@]12OC(=O)O[C@@H]1[C@@H](CO)O[C@H]2n1cnc2c(N)ncnc21 [Compound 31.5, 2′,3′-Carbonyl-2′-C-beta-methyl-adenosine] | 0 | 93 | 85 | 75 |  |  | 2′-β-C-methylinosine was observed | 2′-B-C-methylinosine was detected in plasma, liver, heart, and muscle tissue | 23 | 2522 | 25 | 95 | Specific activity (rate of prodrug disappearance) [6]: 0.28 ± 0.03 nmol/min/mg; Specific activity (rate of prodrug disappearance) [7]: 2.0 ± 0.3 nmol/min/mg; Specific activity (rate of prodrug disappearance) [8]: 0.024 ± 0.003 nmol/min/mg; Specific activity (rate of prodrug disappearance) [9]: 0.03 ± 0.005 nmol/min/mg
C[C@@]1(O)[C@H](O)[C@@H](COP2(=O)OCC[C@H](c3cccc(Cl)c3)O2)O[C@H]1n1ccc2c(N)ncnc21 (stereo partly drawn) [Example 16.1, 4-Amino-7-(cis-5′-O-[4-(3-chlorophenyl)-2-oxo-1,3,2-dioxaphosphorinan-2-yl]-2′-C-methyl-beta-D-ribofuranosyl)-7H-pyrrolo[2,3-d]pyrimidine] |  |  |  |  |  |  |  |  |  |  |  |  | melting point: 138 to 141 °C
